In patent US20240116985A1, “STAPLED PEPTIDES AND METHODS THEREOF” (priority 2020, published 2024):
Values after ≈ are worked out from the molar mass of the structure shown. Like-named read-outs stand apart in the source and are kept apart here.

What was measured:
CHI Log D procedure = format: physicochemical; details: pH 7.4, CHI Log D
Solubility in PBS = format: physicochemical
Summary of the method: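 Solubility is derived from HPLC peak areas: the ratio of the PBS supernatant peak to a 50 μM DMSO peptide peak, times 50 uM.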

[1] = target: T1, full-length beta-Catenin (Uniprot ID P35222) (Homo sapiens, UniProt P35222); assay: Fluorescence polarization IC50 (beta-catenin / 5FAM-TCF4 10-53 competition); format: binding; details: read-out: beta-Catenin FP IC50
T1 construct: 10 nM full-length beta-Catenin (Uniprot ID P35222)
T1 sequence (P35222 1-781): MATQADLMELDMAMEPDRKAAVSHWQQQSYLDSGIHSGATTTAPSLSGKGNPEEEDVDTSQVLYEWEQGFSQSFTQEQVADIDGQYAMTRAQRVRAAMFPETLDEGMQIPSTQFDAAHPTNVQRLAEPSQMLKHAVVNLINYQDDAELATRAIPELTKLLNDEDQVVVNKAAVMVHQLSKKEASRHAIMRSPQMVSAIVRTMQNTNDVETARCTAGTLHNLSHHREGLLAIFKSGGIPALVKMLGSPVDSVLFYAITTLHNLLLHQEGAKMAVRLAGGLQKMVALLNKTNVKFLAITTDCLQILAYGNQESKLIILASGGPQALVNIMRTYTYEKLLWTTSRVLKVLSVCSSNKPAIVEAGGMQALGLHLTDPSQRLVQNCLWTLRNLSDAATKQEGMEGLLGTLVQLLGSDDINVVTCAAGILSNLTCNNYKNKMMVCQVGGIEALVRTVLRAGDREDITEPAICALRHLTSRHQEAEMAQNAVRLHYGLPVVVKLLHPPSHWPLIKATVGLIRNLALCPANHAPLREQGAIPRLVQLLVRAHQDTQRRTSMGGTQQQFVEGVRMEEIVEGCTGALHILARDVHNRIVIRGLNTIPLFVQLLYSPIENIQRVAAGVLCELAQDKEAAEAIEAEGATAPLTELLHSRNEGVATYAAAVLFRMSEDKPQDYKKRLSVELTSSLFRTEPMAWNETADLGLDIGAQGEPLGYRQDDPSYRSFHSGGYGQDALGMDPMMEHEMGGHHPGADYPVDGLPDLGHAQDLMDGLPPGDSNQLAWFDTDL

[2] = target: T2, beta-catenin/TCF4 engagement (Homo sapiens, UniProt P35222); assay: Nano-BRET target engagement assay (B-cat-Halo & TCF4-Luc in HEK293 cells); format: cell-based; details: read-out: NanoBRET Abs IC50
T2 construct: expressed in transfected cells; host or cells: HEK293
T2 sequence (P35222 1-781): T1 sequence (P35222 1-781)

SMILES | chromatographic logD (CHI Log D procedure) | Solubility (Solubility in PBS; Solubility (uM)) | IC50 [1] | IC50 [2] | Solubility (Solubility in PBS) | IC50 ([2]; absolute IC50)
CC(=O)N1CCC[C@]12CC=CCCCC1(CCCC=CCCCCCC[C@@](C)(C(=O)N[C@@H](Cc3ccccc3Cl)C(=O)N[C@@H](Cc3csc4ccccc34)C(=O)N[C@H](C(N)=O)[C@@H](C)O)NC(=O)[C@H]([C@@H](C)O)NC(=O)[C@H](Cc3ccccc3)NC(=O)[C@H](C)NC(=O)[C@H](C)NC(=O)[C@H](CC(=O)O)NC(=O)[C@H](CC(=O)O)NC1=O)NC(=O)[C@H](CC(C)(C)C)NC(=O)[C@H](CC(=O)O)NC2=O (stereo partly drawn) [I-1090, Ac-PL3-Asp-Npg-B5-Asp-Asp-Ala-Ala-Phe-Thr-S8-2C1F-BztA-Thr-NH2] | 2.98 | 39 µM (≈ 72.7 µg/mL) | 18 nM | 6100 nM | – | –
CC(=O)N1CCC[C@]12CC=CCCCC1(CCCC=CCCCCCC[C@@](C)(C(=O)N[C@@H](Cc3ccccc3Cl)C(=O)N[C@@H](Cc3csc4ccccc34)C(=O)N[C@H](C(N)=O)[C@@H](C)O)NC(=O)[C@H]([C@@H](C)O)NC(=O)[C@H](Cc3ccccc3)NC(=O)[C@H](C)NC(=O)[C@H](C)NC(=O)[C@H](CCC(=O)O)NC(=O)[C@H](CC(=O)O)NC1=O)NC(=O)[C@H](CC(C)(C)C)NC(=O)[C@H](CC(=O)O)NC2=O (stereo partly drawn) [I-1091, Ac-PL3-Asp-Npg-B5-Asp-Glu-Ala-Ala-Phe-Thr-S8-2C1F-BztA-Thr-NH2] | 3.04 | 33 µM (≈ 62 µg/mL) | 27 nM | 11400 nM | – | –
CC(=O)N1CCC[C@]12CC=CCCCC1(CCCC=CCCCCCC[C@@](C)(C(=O)N[C@@H](Cc3ccccc3Cl)C(=O)N[C@@H](Cc3csc4ccccc34)C(=O)N[C@@H](C(N)=O)[C@H](C)O)NC(=O)[C@H]([C@@H](C)O)NC(=O)[C@H](Cc3ccccc3)NC(=O)[C@H](C)NC(=O)[C@H](C)NC(=O)[C@H](CC(=O)O)NC(=O)[C@H](CC(=O)O)NC1=O)NC(=O)[C@H](CC(C)(C)C)NC(=O)[C@H](CC(=O)O)NC2=O (stereo partly drawn) [I-1092, Ac-PL3-Asp-Npg-B5-Asp-Asp-Ala-Ala-Phe-Thr-S8-2C1F-BztA-dThr-NH2] | 3.17 | 28 µM (≈ 52.2 µg/mL) | 26 nM | 7700 nM | – | –
CC(=O)N1CCC[C@]12CC=CCCCC1(CCCC=CCCCCCC[C@@](C)(C(=O)N[C@@H](Cc3ccccc3Cl)C(=O)N[C@@H](Cc3csc4ccccc34)C(=O)N[C@@H](CCC(N)=O)C(N)=O)NC(=O)[C@H](CC(C)C)NC(=O)[C@H](Cc3ccccc3)NC(=O)[C@H](C)NC(=O)[C@H](C)NC(=O)[C@H](CCC(=O)O)NC(=O)[C@H](CC(=O)O)NC1=O)NC(=O)[C@H](CC(C)(C)C)NC(=O)[C@H](CC(=O)O)NC2=O (stereo partly drawn) [I-1096, Ac-PL3-Asp-Npg-B5-Asp-Glu-Ala-Ala-Phe-Leu-S8-2C1F-BztA-Gln-NH2] | 3.18 | – | 17 nM | 8600 nM | 10 µM (≈ 19.2 µg/mL) | –
CC(=O)N1CCC[C@]12CC=CCCCC1(CCCC=CCCCOC(=O)N3CC[C@@](C(=O)N[C@@H](Cc4ccccc4)C(=O)N[C@@H](Cc4csc5ccccc45)C(=O)N[C@@H](CO)C(N)=O)(C3)NC(=O)[C@H](CO)NC(=O)[C@H](Cc3ccccc3)NC(=O)[C@H](C)NC(=O)[C@H](C)NC(=O)[C@H](CC(=O)O)NC(=O)[C@H](CC(=O)O)NC1=O)NC(=O)[C@H](CC(C)(C)C)NC(=O)[C@H](CC(=O)O)NC2=O (stereo partly drawn) [I-1099, Ac-PL3-Asp-Npg-B5-Asp-Asp-Ala-Ala-Phe-Ser-PyrS2-Phe-BztA-Ser-NH2] | 2.16 | 47 µM (≈ 86.7 µg/mL) | 9 nM | – | – | 9000 nM
CC(=O)N1CCC[C@]12CC=CCCCC1(CCCC=CCCCOC(=O)N3CC[C@@](C(=O)N[C@@H](Cc4ccccc4)C(=O)N[C@@H](Cc4csc5ccccc45)C(=O)N[C@@H](CO)C(N)=O)(C3)NC(=O)[C@H](CO)NC(=O)[C@H](Cc3ccccc3)NC(=O)[C@H](C)NC(=O)[C@H](C)NC(=O)[C@H](CC(=O)O)NC(=O)[C@H](CC(=O)O)NC1=O)NC(=O)[C@H](CC1CCCCC1)NC(=O)[C@H](CC(=O)O)NC2=O (stereo partly drawn) [I-1100, Ac-PL3-Asp-Cha-B5-Asp-Asp-Ala-Ala-Phe-Ser-PyrS2-Phe-BztA-Ser-NH2] | 2.36 | 46 µM (≈ 86 µg/mL) | 16 nM | 24300 nM | – | –
CC(=O)N1CCC[C@]12CC=CCCCC1(CCCC=CCCCOC(=O)N3CC[C@@](C(=O)N[C@@H](Cc4ccccc4F)C(=O)N[C@@H](Cc4csc5ccccc45)C(=O)N[C@@H](CO)C(N)=O)(C3)NC(=O)[C@H](CO)NC(=O)[C@H](Cc3ccccc3)NC(=O)[C@H](C)NC(=O)[C@H](C)NC(=O)[C@H](CC(=O)O)NC(=O)[C@H](CC(=O)O)NC1=O)NC(=O)[C@H](CC(C)(C)C)NC(=O)[C@H](CC(=O)O)NC2=O (stereo partly drawn) [I-1101, Ac-PL3-Asp-Npg-B5-Asp-Asp-Ala-Ala-Phe-Ser-PyrS2-2FF-BztA-Ser-NH2] | 2.22 | 48 µM (≈ 89.4 µg/mL) | 14 nM | 27000 nM | – | –
COc1ccccc1C[C@H](NC(=O)[C@]12CCN(C1)C(=O)OCCCC=CCCCC1(CCCC=CC[C@]3(CCCN3C(C)=O)C(=O)N[C@@H](CC(=O)O)C(=O)N[C@@H](CC(C)(C)C)C(=O)N1)C(=O)N[C@@H](CC(=O)O)C(=O)N[C@@H](CC(=O)O)C(=O)N[C@@H](C)C(=O)N[C@@H](C)C(=O)N[C@@H](Cc1ccccc1)C(=O)N[C@@H](CO)C(=O)N2)C(=O)N[C@@H](Cc1csc2ccccc12)C(=O)N[C@@H](CO)C(N)=O (stereo partly drawn) [I-1103, Ac-PL3-Asp-Npg-B5-Asp-Asp-Ala-Ala-Phe-Ser-PyrS2-2OMeF-BztA-Ser-NH2] | 2.18 | 46 µM (≈ 86.2 µg/mL) | 15 nM | 16700 nM | – | –
COc1ccccc1C[C@H](NC(=O)[C@]12CCN(C1)C(=O)OCCCC=CCCCC1(CCCC=CC[C@]3(CCCN3C(C)=O)C(=O)N[C@@H](CC(=O)O)C(=O)N[C@@H](CC3CCCCC3)C(=O)N1)C(=O)N[C@@H](CC(=O)O)C(=O)N[C@@H](CC(=O)O)C(=O)N[C@@H](C)C(=O)N[C@@H](C)C(=O)N[C@@H](Cc1ccccc1)C(=O)N[C@@H](CO)C(=O)N2)C(=O)N[C@@H](Cc1csc2ccccc12)C(=O)N[C@@H](CO)C(N)=O (stereo partly drawn) [I-1104, Ac-PL3-Asp-Cha-B5-Asp-Asp-Ala-Ala-Phe-Ser-PyrS2-2OMeF-BztA-Ser-NH2] | 2.38 | 48 µM (≈ 91.2 µg/mL) | 10 nM | 17700 nM | – | –
CC(=O)N1CCC[C@]12CC=CCCCC1(CCCC=CCCCOC(=O)N3CC[C@@](C(=O)N[C@@H](Cc4ccccc4)C(=O)N[C@@H](Cc4csc5ccccc45)C(=O)N[C@@H](CO)C(N)=O)(C3)NC(=O)[C@H](CO)NC(=O)[C@H](CC3CCCCC3)NC(=O)[C@H](C)NC(=O)[C@H](C)NC(=O)[C@H](CC(=O)O)NC(=O)[C@H](CC(=O)O)NC1=O)NC(=O)[C@H](CC(C)(C)C)NC(=O)[C@H](CC(=O)O)NC2=O (stereo partly drawn) [I-1105, Ac-PL3-Asp-Npg-B5-Asp-Asp-Ala-Ala-Cha-Ser-PyrS2-Phe-BztA-Ser-NH2] | 2.33 | 48 µM (≈ 88.8 µg/mL) | 36 nM | – | – | > 20000 nM
CC(=O)N1CCC[C@]12CC=CCCCC1(CCCC=CCCCOC(=O)N3CC[C@@](C(=O)N[C@@H](CC4CCCCC4)C(=O)N[C@@H](Cc4csc5ccccc45)C(=O)N[C@@H](CO)C(N)=O)(C3)NC(=O)[C@H](CO)NC(=O)[C@H](Cc3ccccc3)NC(=O)[C@H](C)NC(=O)[C@H](C)NC(=O)[C@H](CC(=O)O)NC(=O)[C@H](CC(=O)O)NC1=O)NC(=O)[C@H](CC(C)(C)C)NC(=O)[C@H](CC(=O)O)NC2=O (stereo partly drawn) [I-1106, Ac-PL3-Asp-Npg-B5-Asp-Asp-Ala-Ala-Phe-Ser-PyrS2-Cha-BztA-Ser-NH2] | 2.44 | 47 µM (≈ 87 µg/mL) | 23 nM | – | – | > 20000 nM
